Each structure is given as a SMILES string.

The assay has as its target T1, POLγA:A467T (Homo sapiens, UniProt P54098, A467T).
T1 sequence (P54098 1-1239 A467T): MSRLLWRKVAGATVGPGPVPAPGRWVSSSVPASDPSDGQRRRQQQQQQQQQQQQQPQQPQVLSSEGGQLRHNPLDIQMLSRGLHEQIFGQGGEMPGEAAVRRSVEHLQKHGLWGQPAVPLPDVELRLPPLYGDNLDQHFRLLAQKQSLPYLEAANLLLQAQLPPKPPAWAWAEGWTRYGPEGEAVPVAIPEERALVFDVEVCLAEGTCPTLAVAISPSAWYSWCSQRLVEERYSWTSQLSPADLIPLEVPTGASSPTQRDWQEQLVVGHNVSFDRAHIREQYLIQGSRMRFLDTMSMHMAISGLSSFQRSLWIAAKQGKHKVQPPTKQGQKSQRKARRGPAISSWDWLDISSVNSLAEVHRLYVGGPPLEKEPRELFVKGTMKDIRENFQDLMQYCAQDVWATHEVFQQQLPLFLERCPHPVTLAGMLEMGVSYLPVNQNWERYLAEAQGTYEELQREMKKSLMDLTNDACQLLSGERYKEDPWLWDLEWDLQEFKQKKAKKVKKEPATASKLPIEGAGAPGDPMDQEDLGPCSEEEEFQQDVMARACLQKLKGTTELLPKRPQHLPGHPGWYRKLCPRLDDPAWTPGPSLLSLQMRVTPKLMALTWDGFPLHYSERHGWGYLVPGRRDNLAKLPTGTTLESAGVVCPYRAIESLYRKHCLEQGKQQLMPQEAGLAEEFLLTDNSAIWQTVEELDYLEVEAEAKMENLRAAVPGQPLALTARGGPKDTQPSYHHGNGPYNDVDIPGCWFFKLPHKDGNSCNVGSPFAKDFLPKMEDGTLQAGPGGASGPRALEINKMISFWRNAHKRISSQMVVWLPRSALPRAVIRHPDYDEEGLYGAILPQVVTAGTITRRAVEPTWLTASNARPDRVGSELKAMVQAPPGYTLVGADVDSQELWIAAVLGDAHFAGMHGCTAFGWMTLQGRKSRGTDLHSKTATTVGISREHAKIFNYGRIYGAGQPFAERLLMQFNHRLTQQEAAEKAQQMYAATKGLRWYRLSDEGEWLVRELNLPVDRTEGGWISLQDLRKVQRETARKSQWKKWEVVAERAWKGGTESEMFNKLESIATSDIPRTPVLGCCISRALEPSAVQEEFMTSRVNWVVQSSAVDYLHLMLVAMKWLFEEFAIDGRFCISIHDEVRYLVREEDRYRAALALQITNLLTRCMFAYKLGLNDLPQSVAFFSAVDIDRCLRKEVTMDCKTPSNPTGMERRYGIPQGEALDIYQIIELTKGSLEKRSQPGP
T1 sequence (Q9UHN1 1-485 partner): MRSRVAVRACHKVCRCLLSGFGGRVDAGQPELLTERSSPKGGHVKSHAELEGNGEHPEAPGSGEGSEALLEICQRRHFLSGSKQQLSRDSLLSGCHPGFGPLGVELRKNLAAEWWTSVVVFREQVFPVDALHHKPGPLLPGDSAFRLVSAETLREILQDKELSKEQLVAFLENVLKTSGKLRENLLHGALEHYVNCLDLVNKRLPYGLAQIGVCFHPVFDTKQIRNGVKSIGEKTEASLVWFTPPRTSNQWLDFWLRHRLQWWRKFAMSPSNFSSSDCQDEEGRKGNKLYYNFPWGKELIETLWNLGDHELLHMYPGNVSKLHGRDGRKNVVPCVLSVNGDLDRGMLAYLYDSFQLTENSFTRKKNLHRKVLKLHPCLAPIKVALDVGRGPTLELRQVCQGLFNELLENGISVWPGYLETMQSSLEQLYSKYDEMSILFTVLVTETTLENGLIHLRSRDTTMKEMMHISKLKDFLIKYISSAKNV
Put plainly: DNA polymerization assay, POLγA:A467T mutant. The class given is biochemical. As to conditions: stimulation of polymerase activity, primed M13mp18 ssDNA, 37° C. 2 hours; read-out: A467T AC50. The protocol: DNA Polymerization Assay to Monitor Effects on Human Wildtype POLγ and Four Disease-Causing Mutant Variants of Human POLγ.
The ability of small molecules to stimulate the polymerase activity of POLγ was analyzed in a quantitative fluorescence SYBR Green I assay with fluorescence intensity (FI) readout.
In the presence of dNTPs, wild type human POLγ and mutant derivatives thereof were incubated with single-stranded, circular M13mp18 ssDNA hybridized to a short DNA oligonucleotide that functions as a primer for initiation of DNA synthesis. POLγ and mutant derivatives thereof will extend the primer and use the M13mp18 molecule as a template to synthesize long stretches of double-stranded DNA. SYBR Green I, which is a double-stranded DNA-binding dye, was used to quantify formation of double-stranded DNA in the reaction. When bound to double-stranded DNA, SYBR Green I fluorescence increases by up to 100-fold.
The assay was performed in the 384-well plate format. Upon addition of compounds, changes in double-stranded DNA synthesis activity can be monitored by following effects on fluorescent intensity.
The reactions also contained the accessory POLγB subunit, and the human mitochondrial single-stranded DNA binding protein (mtSSB).
The DNA template mixture used in the assay contained 0.5 nM primed M13 mp18 ssDNA, 400 nM mtSSB, 0.1 mM Tris-HCl (pH 8.0), 0.1 mM dNTP, 10 mM MgCl2, 0.1 mg/mL BSA, 1 mM TCEP solution, and 0.02% Triton X-100. The DNA template mixture for the wild type protein contained either 100 μM dNTP, 1 μM dNTP, or 0.1 μM dNTP, designated in Table 2 as 100 μM, 1 μM, and 0.1 μM, respectfully.
Microplates with compounds (0.1 μL in each well) to be tested in the assay were prepared from 10 mM compound stocks in 100% DMSO, and equal amounts of DMSO without any compound were added to positive and negative control wells.
The protein mixture was dispensed (5 μL into each well) into compound plates and incubated at 37° C. for 15 minutes. After incubation, 5 μL of the DNA template mixture was dispensed into each well. The plates were then incubated at 37° C. for 2 hours.
During incubation, a combined stop buffer and detection reagent solution was prepared. The buffer contained 25 mM EDTA (pH 8.0), 0.02% Triton X-100, and SYBR Green I [Invitrogen] diluted 10,000× (for fluorescent readout). EDTA will stop the enzymatic reaction by chelating magnesium ions.
In the case of `Cc1cc(S(=O)(=O)Nc2cccc(C(=O)N(C)C(C)CO)c2)c(C)cc1Cl` (single isomer, unassigned) [Example 14, 3-((4-chloro-2,5-dimethylphenyl)sulfonamido)-N-(1-hydroxypropan-2-yl)-N-methylbenzamide], the AC50 was found to be 28 µM.
Take `Cc1ccc(C)c(S(=O)(=O)Nc2cccc(C(=O)N3CCCCC3C#N)c2)c1` (centres unmarked) [Example 2, N-(3-(2-cyanopiperidine-1-carbonyl)phenyl)-2,5-dimethylbenzenesulfonamide]: the concentration at half-maximal activity (AC50) is 60 µM.
Turning to `Cc1ccc(C)c(S(=O)(=O)Nc2cccc(C(=O)N3CCCCC3)c2)c1` [Example 3, 2,5-dimethyl-N-(3-(piperidine-1-carbonyl)phenyl)benzene sulfonamide], the AC50 came to 48 µM.
Under `Cc1ccc(C)c(S(=O)(=O)Nc2cccc(C(=O)NCC3CC3)c2)c1` [Example 4, N-(cyclopropylmethyl)-3-((2,5-dimethylphenyl)sulfonamido)benzamide] stands 52 µM.
Then `Cc1ccc(C)c(S(=O)(=O)Nc2cccc(C(=O)N3CCCC[C@H]3C)c2)c1` [Example 5, (R)-2,5-dimethyl-N-(3-(2-methylpiperidine-1-carbonyl)phenyl)benzenesulfonamide], with 33 µM.
Consider `Cc1ccc(C)c(S(=O)(=O)Nc2cccc(C(=O)N3CCCC[C@@H]3C)c2)c1` [Example 6, (S)-2,5-dimethyl-N-(3-(2-methylpiperidine-1-carbonyl)phenyl)benzenesulfonamide], for which the AC50 turned out to be 95 µM.
Then `Cc1ccc(C)c(S(=O)(=O)Nc2cccc(C(=O)N3CCOCC3C#N)c2)c1` (centres unmarked) [Example 7, N-(3-(3-cyanomorpholine-4-carbonyl)phenyl)-2,5-dimethylbenzenesulfonamide], with 37 µM; and `Cc1ccc(C)c(S(=O)(=O)Nc2cccc(C(=O)N[C@@H](C)C3CC3)c2)c1` [Example 8, (S)-N-(1-cyclopropylethyl)-3-((2,5-dimethylphenyl)sulfonamido)benzamide], with 39 µM.
Then `Cc1cc(S(=O)(=O)Nc2cccc(C(=O)N3CCCC[C@H]3C)c2)c(C)cc1Cl` [Example 9, (R)-4-chloro-2,5-dimethyl-N-(3-(2-methylpiperidine-1-carbonyl)phenyl)benzenesulfonamide], with 18 µM; and `Cc1cc(S(=O)(=O)Nc2cccc(C(=O)N3CCC[C@H]3C)c2)c(C)cc1Cl` [Example 10, (R)-4-chloro-2,5-dimethyl-N-(3-(2-methylpyrrolidine-1-carbonyl)phenyl)benzenesulfonamide], with 12 µM.
Then `Cc1cc(S(=O)(=O)Nc2cccc(C(=O)NCc3ccccc3)c2)c(C)cc1Cl` [Example 11, N-benzyl-3-((4-chloro-2,5-dimethylphenyl)sulfonamido)benzamide], with 49 µM; and `Cc1cc(S(=O)(=O)Nc2cccc(C(=O)N(C)C)c2)c(C)cc1Cl` [Example 12, 3-((4-chloro-2,5-dimethylphenyl)sulfonamido)-N,N-dimethylbenzamide], with 45 µM; and `Cc1cc(S(=O)(=O)Nc2cc(F)cc(C(=O)N3CCC[C@H]3C)c2)c(C)cc1Cl` [Example 13, (R)-4-chloro-N-(3-fluoro-5-(2-methylpyrrolidine-1-carbonyl)phenyl)-2,5-dimethylbenzenesulfonamide], with 33 µM.
Regarding `Cc1cc(S(=O)(=O)Nc2cccc(-c3nccs3)c2)c(C)cc1Cl` [Example 16, 4-chloro-2,5-dimethyl-N-(3-(thiazol-2-yl)phenyl)benzenesulfonamide], the AC50 came to 5 µM.
As to `Cc1cc(S(=O)(=O)Nc2cccc(-c3ncco3)c2)c(C)cc1Cl` [Example 17, 4-chloro-2,5-dimethyl-N-(3-(oxazol-2-yl)phenyl)benzenesulfonamide], the concentration at half-maximal activity (AC50) was found to be 6 µM.
For the compound `Cc1cc(S(=O)(=O)Nc2cccc(-c3ccn(C)n3)c2)c(C)cc1Cl` [Example 18, 4-chloro-2,5-dimethyl-N-(3-(1-methyl-1H-pyrazol-3-yl)phenyl)benzenesulfonamide], the AC50 was determined as 17 µM.
Regarding `Cc1cc(S(=O)(=O)Nc2cccc(-c3nccn3C)c2)c(C)cc1Cl` [Example 19, 4-chloro-2,5-dimethyl-N-(3-(1-methyl-1H-imidazol-2-yl)phenyl)benzenesulfonamide], the AC50 turned out to be 11 µM.
Under `Cc1cc(S(=O)(=O)Nc2cccc(-c3ncc(C(N)=O)s3)c2)c(C)cc1Cl` [Example 92, 2-(3-((4-chloro-2,5-dimethylphenyl)sulfonamido)phenyl) thiazole-5-carboxamide] stands greater than 100 µM; under `CNC(=O)c1cnc(-c2cccc(NS(=O)(=O)c3cc(C)c(Cl)cc3C)c2)s1` [Example 93, 2-(3-((4-chloro-2,5-dimethylphenyl)sulfonamido)phenyl)-N-methylthiazole-5-carboxamide], greater than 100 µM.
Then `Cc1cc(S(=O)(=O)Nc2cccc(-c3ncc(C(=O)N(C)C)s3)c2)c(C)cc1Cl` [Example 94, 2-(3-((4-chloro-2,5-dimethylphenyl)sulfonamido)phenyl)-N,N-dimethylthiazole-5-carboxamide], with greater than 100 µM; and `Cc1cc(S(=O)(=O)N[C@H]2CCCN(C(=O)[C@H]3CCCN3C)C2)c(C)cc1Cl` [Example 95, 4-chloro-2,5-dimethyl-N-((S)-1-(methyl-D-prolyl)piperidin-3-yl)benzenesulfonamide], with greater than 100 µM; and `Cc1cc(S(=O)(=O)Nc2cccc(-c3ncc(C#N)s3)c2)c(C)cc1Cl` [Example 96, 4-chloro-N-(3-(5-cyanothiazol-2-yl)phenyl)-2,5-dimethylbenzenesulfonamide], with 24 µM.
Turning to `Cc1cc(S(=O)(=O)Nc2cccc(-c3ncc(-c4nnn[nH]4)s3)c2)c(C)cc1Cl` [Example 97, N-(3-(5-(1H-tetrazol-5-yl)thiazol-2-yl)phenyl)-4-chloro-2,5-dimethylbenzenesulfonamide], the AC50 is greater than 100 µM.
